The record followed here is patent US12083114B2, “Inhibitors of SARM1 in combination with neuro-protective agents” (Disarm Therapeutics, Inc., priority 2018, dated 2024).

The test concerns DRG axons. The test can be described thus: Axon degeneration assay: SARM1 inhibitor with DLK inhibitor, mouse DRG drop culture, manual axotomy. It is filed as cell-based. Conditions: 16 hours post-axotomy. As to the method: Mouse dorsal root ganglion neurons (DRGs) were dissected out of E12.5 CD1 mice (50 ganglia per embryo) and incubated with 0.5% Trypsin solution containing 0.02% EDTA (Gibco) at 37° C. for 15 min. The cells were then triturated by gentle pipetting and washed 3 times with DRG growth medium (Neurobasal medium (Gibco) containing 2% B27 (Invitrogen), 100 ng/ml 2.5S NGF (Harland Bioproducts), […] 5-fluoro-2′ deoxyuridine (Sigma), penicillin, and streptomycin). Cells were suspended in the DRG growth medium. DRG drop cultures were created by spotting 5000 cells/well into the center of each well of a 96-well tissue culture plate coated with poly-D-Lysine (0.1 mg/ml; Sigma) and laminin ([…]; Invitrogen). Cells were allowed to adhere to the plates in a humidified tissue culture incubator (5% CO2) for 15 min and then DRG growth medium was gently added ([…] well). DRG neurons were maintained in neurobasal medium supplemented with L-glutamine (Invitrogen), 2% (vol/vol) B27 (Invitrogen), 50 ng/mL NGF (Harlan Laboratories), and 1 μM 5-fluoro-2′deoxyuridine plus 1 μM uridine (Sigma) to induce death of mitotic cells. DRG neurons were then seeded on plates pre-coated with poly-D-lysine and laminin.
2 hours prior to axotomy, DRG cultures were treated with SARM1 inhibitors, in the continued presence of the DLK inhibitor. […] Isoquinoline SARM1 inhibitors tested included I-26 and I-86, while isothiazole SARM1 inhibitors tested included II-6 and II-32. The SARM1 inhibitors were tested using concentrations ranging from 0.1 to 30 μM.
A manual axotomy was performed at time 0 by transecting the axons of the DRG neurons with a blade. After the axotomy, DRG cultures remained exposed to the SARM1 inhibitor alone, DLK inhibitor alone, or the combination of SARM1 inhibitor and DLK inhibitor. At 16 hours, DRG cultures were fixed in a buffered solution containing 1% PFA and sucrose and stored at 4° C. prior to imaging. Bright-field images of DRG axons and cell bodies were collected using the 20× water immersion lens of a Phenix automated confocal microscope (PerkinElmer) and quantitation of axonal damage was performed using in-house developed scripts (Acapella, PerkinElmer). The effect of DLK inhibitor alone in protecting distal axons from fragmentation was determined at concentrations of 100 nM and 300 nM. The effect of combining the DLK inhibitor with varying concentrations of a SARM1 inhibitor was compared to the individual protective effects of either 100 nM or 300 nM of DLK inhibitor alone or an equivalent concentration of a SARM1 inhibitor alone.

Setting [1] is: SARM1 inhibitor alone, 1.1 μM, FIG. 1B/2B.

Structures are written as SMILES.

Consider `Ic1cccc2cnccc12` [I-26], for which the “axonal protection (degeneration index of DRG axons)” value under setting [1] is listed as “modest level of protection” and the “axonal protection (degeneration index of DRG axons)” value (SARM1 inhibitor alone, 1.1, 3.3, 10 or 30 μM (all tested concentrations), FIG. 1A) is reported as “significant axonal protection over all tested concentrations”.

For the compound `N#Cc1c(O)nsc1Nc1ccccc1C(F)(F)F` [II-6], the “axonal protection (degeneration index of DRG axons)” value (SARM1 inhibitor alone, 3.3 μM, FIG. 3B) was “modest level of protection” and the “axonal protection (degeneration index of DRG axons)” value (SARM1 inhibitor alone, 1.1 or 3.3 μM, FIG. 3A) is recorded as “modest, but statistically significant axonal protection”.

`COc1cc(Br)c2ccncc2c1` [I-86]: the “axonal protection (degeneration index of DRG axons)” value is “modest level of axonal protection” under setting [1] and “a small, but statistically significant amount of axonal protection” (SARM1 inhibitor alone, 1.1 μM, FIG. 2A).

As for `COCCn1sc(Nc2ccccc2C(F)(F)F)c(C#N)c1=O` [II-32], the “axonal protection (degeneration index of DRG axons)” value reads like this: (SARM1 inhibitor alone, 0.11, 0.33 or 1.1 μM, FIG. 4A) “modest but not statistically significant axonal protection”; (SARM1 inhibitor alone, 0.11, 0.33 or 1.1 μM, FIG. 4B) “only slight and not statistically significant protection”.

Regarding `N#Cc1ccnc(Nc2cc(C3CCN(C4COC4)CC3)cc(N3CCC(F)(F)C3)n2)c1` [DLK inhibitor, 2-((6-(3,3-difluoropyrrolidin-1-yl)-4-(1-(oxetan-3-yl)piperidin-4-yl)pyridin-2-yl)amino)isonicotinonitrile, reference compound], the “axonal protection (degeneration index of DRG axons)” value by setting is: (100 nM DLK inhibitor alone) “no axonal protection”; (300 nM DLK inhibitor alone) “modest but statistically significant level of axonal protection”.
